Test results: US6355633B1, “Aryl sulfonic acids and derivatives as FSH antagonists” (American Home Products Corporation, priority 1999, dated 2002)

Experiments:
[1] = test system: FSH-induced changes in ovarian follicular maturation; experiment: Immature Rat Test Procedure (FSH-induced organ wet weight); type: in vivo; conditions: immature rats, twice daily for three days with half-maximal dose of hFSH; for IC50 (mg/Kg) ovaries: ovarian wet weight; for IC50 (mg/Kg) uterus: uterine wet weight
Description: Immature Rat Test Procedure
In order to assess the ability of compounds to affect FSH-induced changes in ovarian follicular maturation in vivo, immature rats (18 days of age) are treated twice daily for three days with compound in the presence of a half-maximal dose of purified human FSH. Animals are treated via the i.p. or p.o. routes. On the fourth day following treatment, animals are euthanized and the ovaries, uterus and spleen (the spleen is a control tissue that should not respond to FHS stimulation) collected for wet weight determination. In each experiment animals treated with vehicle alone or FSH alone are used as negative and positive controls, respectively.

FSH receptor = target: T1, FSH receptor (Rattus norvegicus, UniProt P20395); experiment: In Vitro Bio-test Procedure of Agonists and Antagonists to the FSH Receptor Using Primary Cultures of Rat Granulosa (estradiol secretion); type: cell-based; conditions: antagonist mode, inhibition of FSH-induced estradiol secretion (ED50 of FSH, 0.5 ng/mL), rat granulosa cells, 72 h
T1 construct: endogenous in cells; host or cells: primary ovarian granulosa cells of DES-treated immature Sprague-Dawley rats
T1 sequence (P20395 18-692): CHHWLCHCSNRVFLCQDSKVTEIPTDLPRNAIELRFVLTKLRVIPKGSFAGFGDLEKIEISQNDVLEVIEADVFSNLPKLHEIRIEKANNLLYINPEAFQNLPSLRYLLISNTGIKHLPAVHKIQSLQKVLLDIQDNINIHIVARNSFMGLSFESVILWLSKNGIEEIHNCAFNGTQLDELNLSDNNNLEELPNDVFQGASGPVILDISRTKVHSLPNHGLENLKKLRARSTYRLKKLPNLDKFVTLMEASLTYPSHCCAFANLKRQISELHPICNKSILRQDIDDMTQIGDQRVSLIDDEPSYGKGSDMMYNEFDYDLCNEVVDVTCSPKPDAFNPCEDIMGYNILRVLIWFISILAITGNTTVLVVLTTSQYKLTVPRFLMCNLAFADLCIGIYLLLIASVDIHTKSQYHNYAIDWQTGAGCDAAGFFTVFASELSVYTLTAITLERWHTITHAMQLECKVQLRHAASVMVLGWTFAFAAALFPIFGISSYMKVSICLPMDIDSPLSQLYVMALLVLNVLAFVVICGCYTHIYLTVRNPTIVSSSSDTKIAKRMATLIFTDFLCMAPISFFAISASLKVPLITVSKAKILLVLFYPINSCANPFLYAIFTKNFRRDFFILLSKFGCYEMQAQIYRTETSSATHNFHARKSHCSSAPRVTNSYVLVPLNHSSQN
Description: In Vitro Bio-test Procedure of Agonists and Antagonists to the FSH Receptor Using Primary Cultures of Rat Granulosa
Materials and Methods: Reagents
The concentration of vehicle was maintained constant throughout all dilutions.
Preparation of Granulosa Cells: Twenty-four day-old immature female Sprague-Dawley rats (Charles River Laboratories, Wilmington, Mass.) were used as donors for ovarian granulosa cells. The animals were treated by single daily injections of 100 mg/kg diethylstilbestrol (DES) in oil over three days. On the fourth day, animals were sacrificed by CO2 asphyxiation and the ovaries were removed. Ovaries were washed three times in 50 mL of sterile HEPES-buffered saline (HBS, pH 7.4). Granulosa cells were harvested by incubating ovaries in a hypertonic medium consisting of serum-free McCoy*s SA medium (Gibco Life Sciences, Grand Island, N.Y.) supplemented with […], […], 5 ng/mL sodium selenite (ITS, Sigma Chemical Co., St. Louis Mo.), […] L-glutamine, 100 nM testosterone, 100 nM DES and 100 U/mL penicillin/[…]/250 ng/mL amphotericin B (antibiotic/antimycotic, Gibco) containing 0.5 M sucrose and 0.1 mM EGTA. Ovaries were then incubated for 45 min. at 37 C. in a humidified incubator gassed with 95% air/5% CO2. They were washed 3 times with 10 mL isotonic medium (hypertonic medium without sucrose and EGTA) and incubated another 45 min. in isotonic medium at 37 C. Granulosa cells were harvested by squeezing the ovaries between two sterile glass microscope slides. Isolated granulosa cells were then placed in an 50 mL centrifuge tube and washed two times by the addition of 50 mL serum-free McCoy*s 5A medium followed by centrifugation at 700×g for 5 min. After the final spin, the cells were resuspended by gentle trituration in 25 mL serum-free medium, an aliquot counted in a hemocytometer and viability estimated by trypan blue exclusion. Cells were plated into 24-well Nunc tissue culture plates at 200,000 viable cells/well in […].
Procedure: Following plating of the cells, the plates are incubated at 37 C for 2-4 hours at which time the treatments are added to the cells. Treatments are added to the wells at 2× the desired final concentration in […] in isotonic medium containing 0.2% BSA. The cells are incubated at 37 C. for 72 h. At the end of the incubation period, the medium is removed from the wells and tested for estradiol concentration by radioimmunoassay.
Experimental Groups: In the 24-well format, the plate was divided into 6 columns of 4 wells/column. One plate per compound was used to test either agonist or antagonist modes. […]
Four different doses of compound were tested in the antagonist mode. In addition, one column was used for a negative control (vehicle alone) and the other remaining column for a positive control (ED50 of FSH alone).
The doses of compound chosen to test were extrapolated from the initial functional screening process. Along with the plates testing compounds, another plate was run in parallel using a dose-response of FSH (0.01-100 ng/mL) as a positive control.
Analysis of Results: Estradiol was expressed as pg/mL. Estradiol secretion in agonist mode, or the ability of the compound to inhibit FSH-induced estradiol secretion in antagonist, was compared to the appropriate negative and positive controls. Data were analyzed statistically by analysis of variance with Huber weighting of log transformed data. Paired differences were determined using the LSD test
Reference Compounds: Test compounds were compared to the effect of purified or recombinant human FSH.

## 2,2′-[(E)-1,2-Ethenediyl]bis[5-[[4-(methylthio)-3-(4-morpholinylsulfonyl)benzoyl]amino]benzenesulfonic Acid] [Example 30b]
[1]; ip
  IC50 (mg/Kg) ovaries: 8.1 mg/kg
  IC50 (mg/Kg) uterus: 1.3 mg/kg
[1]; po
  IC50 (mg/Kg) ovaries: 23 mg/kg
  IC50 (mg/Kg) uterus: 10 mg/kg
FSH receptor
  IC50: 1500 nM
